In patent US7943628B2, “Pyrimidine derivatives” (Pfizer Limited, priority 2005, dated 2011):

Columns and labels:
[1] = molecular target: T1, histamine H4 receptor (Homo sapiens, UniProt Q9H3N8); test: H4 binding, method 1 ([3H]-histamine filtration binding on CHO cell membranes); settings: H4 binding, method 1; Ki calculated from IC50 (Cheng-Prussoff)
T1 construct: expressed in transfected cells; host or cells: CHO cells
How it was run: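 Membranes from CHO cells expressing human H4 receptor (20-35 μg/well) incubated 90 min at room temperature with 3 nM [3H]-histamine in 50 mM Tris-HCl pH 7.4, ± competitor. Bound label separated by filtration on PEI-soaked GF/B filters and counted by scintillation; non-specific binding with 10 μM JNJ7777120.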

[2] = molecular target: T1, histamine H4 receptor; test: H4 binding, method 2 ([3H]-histamine binding with Ysi WGA beads on CHO cell membranes); settings: H4 binding, method 2, Ki calculated from IC50 (Cheng-Prussoff)
How it was run: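 Membranes from H4-expressing CHO cells were pre-bound to WGA SPA beads, then incubated 90 min at room temperature with 6.5 nM [3H]-histamine in 50 mM Tris-HCl pH 7.4, with or without competitor. Non-specific binding defined with 10 μM JNJ7777120; bound label read by scintillation counting.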

Ki [1] [nM] | Ki ([2]; read-out: Method 2 (Ki (nM))) [nM] | Compound | Ki ([2]; Method 2 (Ki (nM))) [nM]
10.6 | 31.6 | CN[C@@H]1CCN(c2cc(NCC(C)(C)C)nc(N)n2)C1 [Example 11, N^4-(2,2-Dimethylpropyl)-6-[(3R)-3-(methylamino)pyrrolidin-1-yl] pyrimidine-2,4-diamine] | 
0.979 | 6.26 | CNC1CN(c2cc(NCC3CCCC3)nc(N)n2)C1 [Example 68, N^4-Cyclopentylmethyl-6-(3-methylamino-azetidin-1-yl)-pyrimidine-2,4-diamine] | 
1.95 | 12.2 | CNC1CN(c2cc(NCC3CC3)nc(N)n2)C1 [Example 63, N^4-Cyclopropylmethyl-6-(3-methylamino-azetidin-1-yl)-pyrimidine-2,4-diamine] | 
0.58 | 16.8 | CNC1CN(c2cc(NCCC(C)C)nc(N)n2)C1 [Example 74, 6-[3-(Methylamino)azetidin-1-yl]-N^4-(3-methylbutyl)pyrimidine-2,4-diamine] | 
201 | 1800 | CC(C)(C)CCNc1cc(N2CCNCC2)ncn1 [Example 111, N-(3,3-Dimethylbutyl)-6-piperazin-1-ylpyrimidin-4-amine] | 
82.3 | 335 | CN1CCN(c2cc(NCCC(C)(C)C)ncn2)CC1 [Example 1, N-(3,3-Dimethylbutyl)-6-(4-methylpiperazin-1-yl)pyrimidin-4-amine] | 
30.5 | 58.1 | CC(C)CNc1cc(N2CC[C@@H](N(C)C)C2)ncn1 [Example 20, 6-[(3R)-3-(Dimethylamino)pyrrolidin-1-yl]-N-isobutyl-pyrimidin-4-amine] | 
1.29 | 14 | CNC1CN(c2cc(NCC(C)C)nc(N)n2)C1 [Example 71, N^4-Isobutyl-6-[3-(methylamino)azetidin-1-yl]pyrimidine-2,4-diamine] | 
13.6 | 23.3 | CN[C@@H]1CCN(c2cc(NCC(C)C)ncn2)C1 [Example 14, N-Isobutyl-6-[(3R)-3-(methyl-amino)pyrrolidin-1-yl]pyrimidin-4-amine] | 
17.5 | 19.8 | CNC1CN(c2cc(NCc3cccc(F)c3)nc(N)n2)C1 [Example 65, N^4-(3-Fluoro-benzyl)-6-(3-methylamino-azetidin-1-yl)-pyrimidine-2,4-diamine] | 
8.94 | 14.1 | CNC1CN(c2cc(NCCC(F)(F)F)nc(N)n2)C1 [Example 62, 6-(3-Methylamino-azetidin-1-yl)-N^4-(3,3,3-trifluoro-propyl)-pyrimidine-2,4-diamine] | 
2.7 | 19.3 | CN[C@@H]1CCN(c2cc(NCC3CC3)nc(N)n2)C1 [Example 9, N^4-(Cyclopropylmethyl)-6-[(3R)-3-(methylamino)pyrrolidin-1-yl]pyrimidine-2,4-diamine] | 
3.57 | 28.8 | CNC1CN(c2cc(NC(C)C)nc(N)n2)C1 [Example 60, N^4-Isopropyl-6-(3-methylamino-azetidin-1-yl)-pyrimidine-2,4-diamine] | 
0.278 | 1.6 | CNC1CN(c2cc(NCC3CCC3)nc(N)n2)C1 [Example 67, N^4-Cyclobutylmethyl-6-(3-methylamino-azetidin-1-yl)-pyrimidine-2,4-diamine] | 
1.66 | 1.33 | CNC1CN(c2cc(NCC(C)(C)C)nc(N)n2)C1 [Example 61, N^4-(2,2-Dimethylpropyl)-6-[3-(methylamino)azetidin-1-yl]pyrimidine-2,4-diamine] | 
839 | > 16200 | CCN1CCN(c2cc(NCCC(C)(C)C)ncn2)CC1 [Example 270, N-(3,3-Dimethylbutyl)-6-(4-ethylpiperazin-1-yl)pyrimidin-4-amine] | 
58.9 | 59.3 | CN(C)[C@@H]1CCN(c2cc(NCC(C)(C)C)ncn2)C1 [Example 22, 6-[(3R)-3-(Dimethylamino)pyrrolidin-1-yl]-N-(2,2-dimethylpropyl)pyrimidin-4-amine] | 
37.7 | 59.2 | CNC1CN(c2cc(NCCC(C)(C)C)ncn2)C1 [Example 59, N-(3,3-Dimethylbutyl)-6-[3-(methylamino)azetidin-1-yl]pyrimidin-4-amine] | 

Compound | Ki [1] [nM] | Ki ([2]; read-out: Method 2 (Ki (nM))) [nM] | Ki ([2]; Method 2 (Ki (nM))) [nM]
CC(C)(C)CNc1cc(N2C[C@H]3CCCN[C@H]3C2)nc(N)n1 (racemic) [Example 30, N^4-(2,2-Dimethylpropyl)-6-[(4aR*,7aR*)-octahydro-6H-pyrrolo[3,4-b]pyridin-6-yl] pyrimidine-2,4-diamine] | 3.06 |  | 19.3
CN1CCN(c2cc(NCC3CC3)nc(N)n2)CC1 [Example 122, N^4-(Cyclopropylmethyl)-6-(4-methylpiperazin-1-yl)pyrimidine-2,4-diamine] | 3.65 |  | 8.65
CCNc1cc(N2CCN(C)CC2)nc(N)n1 [Example 120, N^4-Ethyl-6-(4-methylpiperazin-1-yl)pyrimidine-2,4-diamine] | 4.89 |  | 11.2
CC(C)CNc1cc(N2CCN(C)CC2)nc(N)n1 [Example 121, N^4-Isobutyl-6-(4-methylpiperazin-1-yl)pyrimidine-2,4-diamine] | 2.18 |  | 6.64
